Columns and labels:
[1] = target: p38 MAPKα (Homo sapiens (Human), UniProt Q16539); assay: p38 MAPKα enzyme inhibition (FRET, Z-LYTE); type: biochemical
[2] = target: cSrc (Homo sapiens (Human), UniProt P12931); assay: c-Src enzyme inhibition (FRET, Z-LYTE); type: biochemical
How it was run: (§1)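 Z-LYTE FRET kinase assay: enzyme (3000 or 2000 ng/mL stock, respectively) preincubated 2 h at RT with compound (4–0.004 μg/mL stocks), then FRET peptide plus ATP (800 μM stock for c-Src, 60 μM for Syk) added for 1 h. Protease development 1 h; phosphorylation from coumarin/fluorescein emission ratio.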

[3] = target: Syk (Homo sapiens (Human), UniProt P43405); assay: Syk enzyme inhibition (FRET, Z-LYTE); type: biochemical
How it was run: as §1

[4] = tested on: LPS-induced TNFα release in d-U937 cells; assay: LPS-induced TNFα release in d-U937 cells; type: cell-based; settings: Homo sapiens, dU937, relative to 10 μg/mL BIRB796, read-out: LPS Induced Release of Cytokine in d-937 Cells TNFα REC50
How it was run: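 Human monocytic U937 cells were differentiated to macrophage-type cells with PMA (100 ng/mL) for 48 to 72 hr, pre-treated with test compound for 2 hr, then stimulated 4 hr with E. coli O111:B4 LPS (0.1 μg/mL). Supernatant TNFα and IL-8 were measured by sandwich ELISA; REC50 came from concentration-response curves.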

[5] = tested on: LPS-induced IL-8 release in d-U937 cells; assay: LPS-induced IL-8 release in d-U937 cells; type: cell-based; settings: Homo sapiens, dU937, read-out: LPS Induced Release of Cytokine in d-937 Cells IL-8 IC50
How it was run: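 Read-out: TNFα and IL-8 released into supernatant, sandwich ELISA, expressed as inhibition versus vehicle at each dose and fitted to give REC50. Cells were PMA-differentiated U937 (100 ng/mL, 48–72 hr), compound-exposed 2 hr before a 4 hr LPS stimulus (0.1 μg/mL).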

[6] = tested on: Poly I:C-induced ICAM-1 expression in BEAS2B cells; assay: Poly I:C-induced ICAM-1 expression in BEAS2B cells; type: cell-based; settings: Homo sapiens, BEAS-2B, read-out: Poly IC induced ICAM1 in BEAS2B IC50
How it was run: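 Cell-based ELISA read at 450 nm minus 655 nm, divided by crystal violet OD595 to normalize for cell number, gave ICAM-1 levels. Readout was taken 18 hr after poly I:C (1 μg/mL, Oligofectamine) transfection of human bronchial BEAS2B cells pretreated 2 hr with test compound.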

[7] = tested on: d-U937 cells; assay: Cell viability: MTT assay; type: cell-based, human; settings: 1 μg/mL
How it was run: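 MTT read-out (1 h, absorbance 550 nm) on d-U937 cells after pre-incubation with 1 or 10 μg/mL compound under two regimes: 4 h, 5% FCS, or 24 h, 10% FCS RPMI1640. Values are percent loss of viability relative to vehicle (0.5% DMSO), so increases are reported as negative.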

p38 MAPKα, sequence (Q16539 whole entry): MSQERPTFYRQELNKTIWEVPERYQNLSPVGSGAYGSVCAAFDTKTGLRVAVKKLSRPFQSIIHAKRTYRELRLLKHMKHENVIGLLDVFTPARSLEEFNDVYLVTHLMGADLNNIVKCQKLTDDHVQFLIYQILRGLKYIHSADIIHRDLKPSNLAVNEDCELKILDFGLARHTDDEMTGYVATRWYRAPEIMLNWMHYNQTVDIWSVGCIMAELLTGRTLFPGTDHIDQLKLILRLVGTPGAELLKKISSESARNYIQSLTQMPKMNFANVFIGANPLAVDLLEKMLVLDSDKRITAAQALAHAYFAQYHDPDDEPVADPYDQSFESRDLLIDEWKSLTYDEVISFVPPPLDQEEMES
cSrc, sequence (P12931 whole entry, looked up): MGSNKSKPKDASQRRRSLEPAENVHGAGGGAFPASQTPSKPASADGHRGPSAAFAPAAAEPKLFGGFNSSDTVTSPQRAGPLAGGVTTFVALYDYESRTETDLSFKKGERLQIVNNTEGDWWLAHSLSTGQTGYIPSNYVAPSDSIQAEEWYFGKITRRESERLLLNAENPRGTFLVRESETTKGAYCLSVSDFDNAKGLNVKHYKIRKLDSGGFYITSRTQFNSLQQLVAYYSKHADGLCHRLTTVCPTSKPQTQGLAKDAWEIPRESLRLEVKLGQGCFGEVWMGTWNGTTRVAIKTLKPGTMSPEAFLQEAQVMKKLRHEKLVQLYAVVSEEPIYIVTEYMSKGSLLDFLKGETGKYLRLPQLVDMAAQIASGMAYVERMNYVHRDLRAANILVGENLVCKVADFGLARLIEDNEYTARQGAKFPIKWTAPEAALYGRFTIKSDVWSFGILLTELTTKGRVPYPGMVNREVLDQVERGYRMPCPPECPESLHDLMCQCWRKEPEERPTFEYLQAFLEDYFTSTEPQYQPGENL

Compound	IC50 [1]	IC50 [2]	IC50 [3]	EC50 [4]	IC50 [5]	IC50 [6]	MTT Assay Cell viability at time point in d-U937 cells 4 h [7]	MTT Assay Cell viability at time point in d-U937 cells 24 h [7]
Cc1ccc(-n2nc(C(C)(C)C)cc2NC(=O)Nc2ccc(Oc3ccnc(Nc4ccc5c(ccn5C)c4)n3)c3ccccc23)cc1 [Example 18, 1-(3-(tert-butyl)-1-(p-tolyl)-1H-pyrazol-5-yl)-3-(4-((2-((1-methyl-1H-indol-5-yl)amino)pyrimidin-4-yl)oxy)naphthalen-1-yl)urea]	1360 nM	155 nM	92 nM	2.8 nM	5.7 nM	1.9 nM	−ve (−ve and +ve indicate that the value is below and above respectively, the no significant effect threshold, defined as 30% inhibition at 1 μg/mL at the time point indicated.)	−ve (−ve and +ve indicate that the value is below and above respectively, the no significant effect threshold, defined as 30% inhibition at 1 μg/mL at the time point indicated.)
Cc1cc(Nc2nccc(Oc3ccc(NC(=O)Nc4cc(C(C)(C)C)nn4-c4cccc(OCCN5CCOCC5)c4)c4ccccc34)n2)cc2cn[nH]c12 [Example 56, 1-(3-(tert-butyl)-1-(3-(2-morpholinoethoxy)phenyl)-1H-pyrazol-5-yl)-3-(4-((2-((7-methyl-1H-indazol-5-yl)amino)pyrimidin-4-yl)oxy)naphthalen-1-yl)urea]	46 nM	2 nM	3 nM	4.9 nM	11 nM	11.9 nM	−ve (−ve and +ve indicate that the value is below and above respectively, the no significant effect threshold, defined as 30% inhibition at 1 μg/mL at the time point indicated.)	+ve (−ve and +ve indicate that the value is below and above respectively, the no significant effect threshold, defined as 30% inhibition at 1 μg/mL at the time point indicated.)
Cc1ccc(-n2nc(C(C)(C)C)cc2NC(=O)Nc2ccc(Oc3ccnc(Nc4ccc5ncsc5c4)n3)c3ccccc23)cc1 [Example 35, 1-(4-((2-(benzo[d]thiazol-6-ylamino)pyrimidin-4-yl)oxy)naphthalen-1-yl)-3-(3-(tert-butyl)-1-(p-tolyl)-1H-pyrazol-5-yl)urea]	439 nM	18 nM	> 1560 nM	11 nM	22.2 nM	2.7 nM	−ve (−ve and +ve indicate that the value is below and above respectively, the no significant effect threshold, defined as 30% inhibition at 1 μg/mL at the time point indicated.)	−ve (−ve and +ve indicate that the value is below and above respectively, the no significant effect threshold, defined as 30% inhibition at 1 μg/mL at the time point indicated.)
COc1ccc(-n2nc(C(C)(C)C)cc2NC(=O)Nc2ccc(Oc3ccnc(Nc4ccc5[nH]ncc5c4)n3)c3ccccc23)cc1 [Example 40, 1-(4-((2-((1H-indazol-5-yl)amino)pyrimidin-4-yl)oxy)naphthalen-1-yl)-3-(3-(tert-butyl)-1-(4-methoxyphenyl)-1H-pyrazol-5-yl)urea]	68 nM	8 nM	24 nM	1.5 nM	7.2 nM	2.4 nM	−ve (−ve and +ve indicate that the value is below and above respectively, the no significant effect threshold, defined as 30% inhibition at 1 μg/mL at the time point indicated.)	−ve (−ve and +ve indicate that the value is below and above respectively, the no significant effect threshold, defined as 30% inhibition at 1 μg/mL at the time point indicated.)

Source: patent US9249125B2, “Pyrazole derivatives as p38 MAP inhibitors” (RESPIVERT LIMITED, priority 2012, dated 2016)
